ChEMBL document CHEMBL5500363, “Discovery of novel ocotillol derivatives modulating glucocorticoid receptor/NF-κB signaling for the treatment of sepsis” (Eur J Med Chem, 2024)
Activity calls are given as the source filed them. The calls are words filed in the database; no cut-off is given here.

Assays:
[1] = tested on: RAW264.7; assay: Cytotoxicity against mouse RAW264.7 cells assessed as cell viability at 40 uM incubated for 24 hrs by MTT assay; type: toxicity, cell-based; settings: raw264.7, 24 h
[2] = tested on: RAW264.7; assay: Downregulation of glucocorticoid receptor in LPS-treated mouse RAW264.7 cells at 1 uM incubated for 24 hrs by qRT-PCR analysis; type: functional, cell-based
[3] = tested on: RAW264.7; assay: Downregulation of glucocorticoid receptor in mouse RAW264.7 cells at 1 uM incubated for 24 hrs by Western blot analysis; type: functional, cell-based
[4] = tested on: RAW264.7; assay: Anti-inflammatory activity in mouse RAW264.7 cells assessed as decrease in LPS-induced p65 phosphorylation at 20 uM pretreated for 2 hrs followed by LPS stimulation for 24 hrs by Western blot analysis; type: functional, cell-based; settings: time 26.0 hrs
[5] = tested on: RAW264.7; assay: Anti-inflammatory activity in mouse RAW264.7 cells assessed as decrease in LPS-induced I-kappaB-alpha phosphorylation at 20 uM pretreated for 2 hrs followed by LPS stimulation for 24 hrs by Western blot analysis; type: functional, cell-based; settings: time 26.0 hrs
[6] = tested on: Mus musculus; assay: Downregulation of I-kappa-B-alpha phosphorylation in liver of LPS-induced sepsis BALB/c mouse model at 7.5 to 30 mg/kg administered via gavage for 3 days followed by LPS treatment for 6 hrs by Western blot analysis; type: functional, organism-based; settings: dose 7.5-30 mg/kg, time 78.0 hrs
[7] = tested on: Mus musculus; assay: Anti-septic activity in LPS-induced sepsis BALB/c mouse assessed as reduction in serum ALT level at 30 mg/kg administered via gavage for 3 days followed by LPS treatment for 6 hrs; type: functional, organism-based; settings: time 78.0 hrs
[8] = tested on: Mus musculus; assay: Anti-septic activity in LPS-induced sepsis BALB/c mouse assessed as reduction in serum CRP level at 30 mg/kg administered via gavage for 3 days followed by LPS treatment for 6 hrs; type: functional, organism-based; settings: time 78.0 hrs
[9] = tested on: RAW264.7; assay: Inhibition of LPS-induced NO production in mouse RAW264.7 cells pretreated for 2 hrs followed by LPS stimulation for 24 hrs by Griess assay; type: functional, cell-based
[10] = tested on: RAW264.7; assay: Inhibition of LPS-induced NO production in mouse RAW264.7 cells at 5 uM pretreated for 2 hrs followed by LPS stimulation for 24 hrs by Griess assay relative to control; type: functional; settings: time 26 hrs
[11] = tested on: RAW264.7; assay: Effect on KLF9 mRNA expression in mouse RAW264.7 cells by qPCR analysis; type: functional, cell-based
[12] = tested on: RAW264.7; assay: Inhibition of LPS-induced NO production in mouse RAW264.7 cells at 10 uM pretreated for 2 hrs followed by LPS stimulation for 24 hrs by Griess assay relative to control; type: functional; settings: time 26 hrs
[13] = tested on: RAW264.7; assay: Inhibition of LPS-induced NO production in mouse RAW264.7 cells at 20 uM pretreated for 2 hrs followed by LPS stimulation for 24 hrs by Griess assay relative to control; type: functional; settings: time 26 hrs
[14] = tested on: RAW264.7; assay: Anti-inflammatory activity in LPS-treated mouse RAW264.7 cells assessed as reversal of nuclear translocation of p65 at 20 uM pretreated for 2 hrs followed by LPS stimulation for 24 hrs by immunofluorescence analysis; type: functional, cell-based; settings: time 26.0 hrs
[15] = tested on: Mus musculus; assay: Downregulation of p65 phosphorylation in liver of LPS-induced sepsis BALB/c mouse model at 7.5 to 30 mg/kg administered via gavage for 3 days followed by LPS treatment for 6 hrs by Western blot analysis; type: functional, organism-based; settings: dose 7.5-30 mg/kg, time 78.0 hrs
[16] = target: T1, Glucocorticoid receptor (Mus musculus) (UniProt P06537); assay: Stabilization of glucocorticoid receptor in mouse RAW264.7 cells assessed as blockade of CHX-induced protein degradation at 20 uM incubated for 24 hrs by Western blot analysis; type: cell-based
T1 sequence (whole entry): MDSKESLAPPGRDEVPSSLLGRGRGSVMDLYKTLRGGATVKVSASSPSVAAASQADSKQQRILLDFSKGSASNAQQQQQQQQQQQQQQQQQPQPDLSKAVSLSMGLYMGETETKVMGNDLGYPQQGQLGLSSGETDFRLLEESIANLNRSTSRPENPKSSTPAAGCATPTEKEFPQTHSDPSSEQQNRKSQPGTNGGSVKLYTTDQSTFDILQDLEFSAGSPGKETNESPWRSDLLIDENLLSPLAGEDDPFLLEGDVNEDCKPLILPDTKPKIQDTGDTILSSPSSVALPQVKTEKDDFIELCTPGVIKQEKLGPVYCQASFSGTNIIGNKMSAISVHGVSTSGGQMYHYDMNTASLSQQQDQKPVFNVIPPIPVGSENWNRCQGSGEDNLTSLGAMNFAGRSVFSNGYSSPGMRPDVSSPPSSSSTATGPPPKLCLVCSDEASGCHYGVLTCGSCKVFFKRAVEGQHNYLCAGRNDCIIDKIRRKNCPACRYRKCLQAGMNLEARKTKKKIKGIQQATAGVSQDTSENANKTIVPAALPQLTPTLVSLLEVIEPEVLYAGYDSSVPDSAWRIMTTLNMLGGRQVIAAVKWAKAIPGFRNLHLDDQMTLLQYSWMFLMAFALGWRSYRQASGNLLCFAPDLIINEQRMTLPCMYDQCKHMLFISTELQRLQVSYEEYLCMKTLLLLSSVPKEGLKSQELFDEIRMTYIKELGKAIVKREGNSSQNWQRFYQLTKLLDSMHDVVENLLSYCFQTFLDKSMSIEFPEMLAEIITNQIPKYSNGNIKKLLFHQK

[17] = tested on: Mus musculus; assay: Anti-septic activity in LPS-induced sepsis BALB/c mouse assessed as reduction in serum AST level at 30 mg/kg administered via gavage for 3 days followed by LPS treatment for 6 hrs; type: functional, organism-based; settings: time 78.0 hrs
[18] = Cytotoxicity against mouse RAW264.7 cells assessed as cell viability at 40 uM incubated for 24 hrs by MTT assay relative to control; type: toxicity, cell-based; settings: read-out: Activity

| SMILES | Activity [1] | IC50 [9] | inhibition at 5 µM [10] | inhibition at 10 µM [12] | inhibition at 20 µM [13] | viability at 24 h, 40 µM [18] | also measured |
| --- | --- | --- | --- | --- | --- | --- | --- |
| CC(C)(C)OC(=O)NCCCCCCCC(=O)Nc1nc2c(s1)C[C@]1(C)[C@H]3C[C@@H](O)[C@@H]4C([C@]5(C)CC[C@H](C(C)(C)O)O5)CC[C@@]4(C)[C@]3(C)CC[C@H]1C2(C)C (some centres not stated) | Toxic | – | – | – | – | – | – |
| C[C@@H]1C[C@H]2[C@@H]3CCC4=CC(=O)C=C[C@]4(C)[C@@]3(F)[C@@H](O)C[C@]2(C)[C@@]1(O)C(=O)CO | – | – | – | – | – | – | Activity [2]: Active; Activity [3]: Active |
| Cc1nnc(NC(=O)CCC(=O)O[C@H]2CC[C@]3(C)[C@H]4C[C@@H](O)[C@@H]5C([C@]6(C)CC[C@@H](C(C)(C)O)O6)CC[C@@]5(C)[C@]4(C)CC[C@H]3C2(C)C)s1 (some centres not stated) | Toxic | – | – | – | – | – | – |
| CC(C)=CCC[C@@](C)(O)C1CC[C@]2(C)[C@@H]1[C@H](O)C[C@@H]1[C@@]3(C)CC[C@H](O)C(C)(C)[C@@H]3CC[C@]12C (some centres not stated) | – | 34.4 µM | 7.09% | 11.2% | 31.4% | – | Activity [4]: Active; Activity [5]: Active; Activity [6]: inactive; Activity [7]: Active; Activity [8]: Active; Activity [11]: inactive; Activity [14]: Active; Activity [15]: inactive; Activity [16]: inactive; Activity [17]: Active |
| CC(C)(O)[C@H]1CC[C@@](C)(C2CC[C@]3(C)[C@@H]2[C@H](O)C[C@@H]2[C@@]4(C)CC[C@H](OC(=O)CCC(=O)Nc5nnc(Br)s5)C(C)(C)[C@@H]4CC[C@]23C)O1 (some centres not stated) | Toxic | – | – | – | – | – | – |
| CC(=O)Nc1nc2c(s1)C[C@]1(C)[C@H]3C[C@@H](O)[C@@H]4C([C@]5(C)CC[C@H](C(C)(C)O)O5)CC[C@@]4(C)[C@]3(C)CC[C@H]1C2(C)C (some centres not stated) | Toxic | – | – | – | – | – | – |
| CC(C)(O)[C@@H]1CC[C@@](C)(C2CC[C@]3(C)[C@@H]2[C@H](O)C[C@@H]2[C@@]4(C)Cc5sc(NC(=O)C(F)(F)F)nc5C(C)(C)[C@@H]4CC[C@]23C)O1 (some centres not stated) | – | 25.7 µM | 14.2% | 20.6% | 30.9% | > 90% | – |
| CC(=O)Nc1nc2c(s1)C[C@]1(C)[C@H]3C[C@@H](O)[C@@H]4C([C@]5(C)CC[C@@H](C(C)(C)O)O5)CC[C@@]4(C)[C@]3(C)CC[C@H]1C2(C)C (some centres not stated) | Toxic | – | – | – | – | – | – |
| CC(C)(C)OC(=O)NCCCC(=O)Nc1nc2c(s1)C[C@]1(C)[C@H]3C[C@@H](O)[C@@H]4C([C@]5(C)CC[C@@H](C(C)(C)O)O5)CC[C@@]4(C)[C@]3(C)CC[C@H]1C2(C)C (some centres not stated) | Toxic | – | – | – | – | – | – |
| CC(C)(C)OC(=O)NCCCC(=O)Nc1nc2c(s1)C[C@]1(C)[C@H]3C[C@@H](O)[C@@H]4C([C@]5(C)CC[C@H](C(C)(C)O)O5)CC[C@@]4(C)[C@]3(C)CC[C@H]1C2(C)C (some centres not stated) | Toxic | – | – | – | – | – | – |
| CC(C)(O)[C@@H]1CC[C@@](C)(C2CC[C@]3(C)[C@@H]2[C@H](O)C[C@@H]2[C@@]4(C)CC[C@H](OC(=O)CCC(=O)Nc5nnc(Cl)s5)C(C)(C)[C@@H]4CC[C@]23C)O1 (some centres not stated) | – | 29.8 µM | 32.5% | 43.4% | 45.7% | > 90% | – |
| CC(C)(C)OC(=O)NCCCCCC(=O)Nc1nc2c(s1)C[C@]1(C)[C@H]3C[C@@H](O)[C@@H]4C([C@]5(C)CC[C@@H](C(C)(C)O)O5)CC[C@@]4(C)[C@]3(C)CC[C@H]1C2(C)C (some centres not stated) | – | 24.5 µM | 27.4% | 43.6% | 48.5% | > 90% | – |
| Cc1nnc(NC(=O)CCC(=O)O[C@H]2CC[C@]3(C)[C@H]4C[C@@H](O)[C@@H]5C([C@]6(C)CC[C@H](C(C)(C)O)O6)CC[C@@]5(C)[C@]4(C)CC[C@H]3C2(C)C)s1 (some centres not stated) | Toxic | – | – | – | – | – | – |
| CC(C)(C)OC(=O)NCCCCCCCCCCC(=O)Nc1nc2c(s1)C[C@]1(C)[C@H]3C[C@@H](O)[C@@H]4C([C@]5(C)CC[C@H](C(C)(C)O)O5)CC[C@@]4(C)[C@]3(C)CC[C@H]1C2(C)C (some centres not stated) | Toxic | – | – | – | – | – | – |
| CC(C)(O)[C@H]1CC[C@@](C)(C2CC[C@]3(C)[C@@H]2[C@H](O)C[C@@H]2[C@@]4(C)Cc5sc(NC(=O)OC(F)(F)F)nc5C(C)(C)[C@@H]4CC[C@]23C)O1 (some centres not stated) | – | 35.6 µM | 8.01% | 21.2% | 37.5% | > 90% | – |
| CC(C)(O)[C@@H]1CC[C@@](C)(C2CC[C@]3(C)[C@@H]2[C@H](O)C[C@@H]2[C@@]4(C)Cc5sc(NC(=O)OC(F)(F)F)nc5C(C)(C)[C@@H]4CC[C@]23C)O1 (some centres not stated) | – | 41.6 µM | 6.07% | 6.84% | 22.2% | > 90% | – |
| CC(C)(C)OC(=O)CC(=O)Nc1nc2c(s1)C[C@]1(C)[C@H]3C[C@@H](O)[C@@H]4C([C@]5(C)CC[C@H](C(C)(C)O)O5)CC[C@@]4(C)[C@]3(C)CC[C@H]1C2(C)C (some centres not stated) | – | 17.5 µM | 14.3% | 29.8% | 50% | > 90% | – |
| CC(C)(C)OC(=O)NCCCCCC(=O)Nc1nc2c(s1)C[C@]1(C)[C@H]3C[C@@H](O)[C@@H]4C([C@]5(C)CC[C@H](C(C)(C)O)O5)CC[C@@]4(C)[C@]3(C)CC[C@H]1C2(C)C (some centres not stated) | Toxic | – | – | – | – | – | – |
| CC(C)(O)[C@@H]1CC[C@@](C)(C2CC[C@]3(C)[C@@H]2[C@H](O)C[C@@H]2[C@@]4(C)CC[C@H](OC(=O)CCC(=O)Nc5nnc(Br)s5)C(C)(C)[C@@H]4CC[C@]23C)O1 (some centres not stated) | – | 10.3 µM | 34.8% | 47% | 70.2% | > 90% | – |
| CC(C)(O)[C@H]1CC[C@@](C)(C2CC[C@]3(C)[C@@H]2[C@H](O)C[C@@H]2[C@@]4(C)Cc5sc(NC(=O)C(F)(F)F)nc5C(C)(C)[C@@H]4CC[C@]23C)O1 (some centres not stated) | Toxic | – | – | – | – | – | – |
| CC(C)(C)OC(=O)CCCC(=O)Nc1nc2c(s1)C[C@]1(C)[C@H]3C[C@@H](O)[C@@H]4C([C@]5(C)CC[C@@H](C(C)(C)O)O5)CC[C@@]4(C)[C@]3(C)CC[C@H]1C2(C)C (some centres not stated) | – | 11.6 µM | 20.4% | 41.2% | 60.4% | > 90% | – |
